According to ChEMBL document CHEMBL6153110, “Peptide Double-Stapling and Arginine N-Glycosylation Triggered the Development of Therapeutic Antimicrobial Peptides Capable of Killing Drug-Resistant Bacteria in Mice” (J Med Chem, 2025):
In brackets after ≈: the same amount, converted by molar mass. Activity calls are given as the source filed them. No cut-off for these calls is given here. Positions of bridges follow the written chain, without caps; N, C: chain ends. Non-standard residues stand in square brackets, D forms with d. Residues, ends and D or L forms follow the SMILES beside them. S5 = C=CCCC[C@](C)(N)C(=O)O

Experiments:
Klebsiella pneumoniae [1] = assay: In vivo antibacterial activity against Klebsiella pneumoniae ATCC 13883 induced bacterial pneumonia mouse model assessed as reduction in bacterial infection induced weight loss at 1 mg/kg, injected into trachea after 24 hrs of infection measured after 3 to 7 days; type: functional, organism-based
[2] = Toxicity in mouse assessed as fasciculus necrosis at 40 mg/kg, sc by H and E staining based assay; type: organism-based; settings: in vivo
Cell membrane [3] = assay: Induction of cell membrane damage in Klebsiella pneumoniae ATCC 13883 assessed as increase in green fluorescence at MIC measured after 1 hr incubation by SYTO9 confocal microscopy; type: subcellular
Staphylococcus aureus [4] = assay: In vivo antibacterial activity against methicillin-resistant Staphylococcus aureus ATCC 43300 infected locally in full thickness skin wound mouse model assessed as reduction in bacterial load in skin wound at 1 mg/kg treated with absorbable gelatin sponge measured after 3 days; type: functional, organism-based; settings: time 3.0 day
[5] = Toxicity in mouse skin assessed as abscesses and visual lesions at 40 mg/kg, sc by histological analysis; type: organism-based; settings: in vivo
Cell membrane [6] = assay: Induction of cell membrane damage in methicillin-resistant Staphylococcus aureus ATCC 43300 assessed as increase in red fluorescence at MIC measured after 1 hr incubation by PI based assay; type: subcellular
Cell membrane [7] = assay: Induction of cell membrane damage in methicillin-resistant Staphylococcus aureus ATCC 43300 assessed as increase in green fluorescence at MIC measured after 1 hr incubation by SYTO9 confocal microscopy; type: subcellular
Cell membrane [8] = assay: Binding affinity to Klebsiella pneumoniae ATCC 13883 cell membrane treated with FITC labelled peptides at MIC measured after 1.5 hr by CLSM imaging analysis; type: subcellular
Streptococcus pneumoniae = assay: Antimicrobial activity against Streptococcus pneumoniae ATCC 49619 assessed as growth inhibition measured after 8 hrs incubation by standard broth dilution assay; type: functional
Staphylococcus aureus [9] = assay: In vivo antibacterial activity against methicillin-resistant Staphylococcus aureus ATCC 43300 infected locally in full thickness skin wound mouse model assessed as reduction in bacterial load in skin wound at 4 mg/kg treated with absorbable gelatin sponge measured after 3 days; type: functional, organism-based; settings: time 3.0 day
Staphylococcus aureus [10] = assay: In vivo antibacterial activity against methicillin-resistant Staphylococcus aureus ATCC 43300 infected locally in full thickness skin wound mouse model assessed as reduction in bacterial load in skin wound at 4 mg/kg treated with absorbable gelatin sponge measured after 7 days; type: functional, organism-based; settings: time 7.0 day
Klebsiella pneumoniae [11] = assay: In vivo antibacterial activity against Klebsiella pneumoniae ATCC 13883 induced bacterial pneumonia mouse model assessed as reduction in bacterial infection induced weight loss at 4 mg/kg, injected into trachea after 24 hrs of infection measured after 3 to 7 days; type: functional, organism-based
Cell membrane [12] = assay: Induction of cell membrane damage in Klebsiella pneumoniae ATCC 13883 assessed as increase in red fluorescence at MIC measured after 1 hr incubation by PI based confocal microscopy; type: subcellular
Klebsiella pneumoniae [13] = assay: Antimicrobial activity against Klebsiella pneumoniae ATCC 13883 assessed as growth inhibition measured after 8 hrs incubation by standard broth dilution assay; type: functional
Cell membrane [14] = assay: Induction of cell membrane damage in methicillin-resistant Staphylococcus aureus ATCC 43300 assessed as corrugation, blebbing, breakage, and fragmentation at MIC measured after 1 hr incubation by Scanning electron microscopy; type: subcellular
Klebsiella pneumoniae [15] = assay: Antibiofilm activity in Klebsiella pneumoniae ATCC 13883 assessed as reduction in biofilm formation at 150 ug/ml measured after 24 hrs by crystal violet staining based assay relative to control; type: functional; design: scale not given: the % may be the effect or the level left; settings: dose 150 µg/ml
Cell membrane [16] = assay: Induction of cell membrane damage in Klebsiella pneumoniae ATCC 13883 assessed as significant plasma membrane rupture, cytosolic membrane and outer membrane separation, and cytoplasmic leakage at MIC measured after 1 hr incubation by Transmission electron microscopy; type: subcellular
Staphylococcus aureus [17] = assay: In vivo antibacterial activity against methicillin-resistant Staphylococcus aureus ATCC 43300 infected locally in full thickness skin wound mouse model assessed as clean and less exudate at 1 mg/kg treated with absorbable gelatin sponge measured on early healing stage; type: functional, organism-based; settings: route id
Cell membrane [18] = assay: Binding affinity to methicillin-resistant Staphylococcus aureus ATCC 43300 cell membrane treated with FITC labelled peptides at MIC measured after 1.5 hr by CLSM imaging analysis; type: subcellular
Staphylococcus aureus [19] = assay: In vivo antibacterial activity against methicillin-resistant Staphylococcus aureus ATCC 43300 infected locally in full thickness skin wound mouse model assessed as reduced skin damage by promoting wound healing at 4 mg/kg treated with absorbable gelatin sponge measured on early healing stage; type: functional, organism-based; settings: route id
Staphylococcus aureus [20] = assay: Antibiofilm activity in methicillin-resistant Staphylococcus aureus ATCC 43300 assessed as reduction in biofilm formation at 37.2 ug/ml measured after 24 hrs by crystal violet staining based assay relative to control; type: functional; design: scale not given: the % may be the effect or the level left; settings: dose 37.2 µg/ml
Staphylococcus aureus [21] = assay: In vivo antibacterial activity against methicillin-resistant Staphylococcus aureus ATCC 43300 infected locally in full thickness skin wound mouse model assessed as reduction in bacterial load in skin wound at 1 mg/kg treated with absorbable gelatin sponge measured after 7 days; type: functional, organism-based; settings: time 7.0 day
Staphylococcus aureus [22] = assay: Antimicrobial activity against methicillin-resistant Staphylococcus aureus ATCC 43300 assessed as growth inhibition measured after 8 hrs incubation by standard broth dilution assay; type: functional
[23] = Toxicity in mouse assessed as intramuscular injury at 40 mg/kg, sc by H and E staining based assay; type: organism-based; settings: in vivo
Cell membrane [24] = assay: Induction of cell membrane damage in Klebsiella pneumoniae ATCC 13883 assessed as corrugation, blebbing, breakage, and fragmentation at MIC measured after 1 hr incubation by Scanning electron microscopy; type: subcellular
Pseudomonas aeruginosa = assay: Antimicrobial activity against Pseudomonas aeruginosa ATCC 27853 assessed as growth inhibition measured after 8 hrs incubation by standard broth dilution assay; type: functional
Cell membrane [25] = assay: Induction of cell membrane damage in methicillin-resistant Staphylococcus aureus ATCC 43300 assessed as significant plasma membrane rupture, […], and cytoplasmic leakage at MIC measured after 1 hr incubation by Transmission electron microscopy; type: subcellular
[26] = Hemolytic activity in BALB/c mouse red blood cells assessed as hemolysis incubated for 1 hrs; type: toxicity, cell-based, Erythrocyte; settings: read-out: HD50

Question: Which results are given for `CC(=O)N[C@@H](CC(C)C)C(=O)N[C@@H](CCCCN)C(=O)N[C@@H](CCCNC(=N)N)C(=O)N[C@H](C(=O)N[C@@H](Cc1c[nH]c2ccccc12)C(=O)N[C@@H](CCCCN)C(=O)N[C@@H](CCCNC(=N)N)C(=O)N[C@H](C(=O)N[C@@H](Cc1ccccc1)C(=O)N[C@@H](CCCCN)C(=O)N[C@@H](CC(C)C)C(=O)N[C@@H](CC(C)C)C(=O)N[C@@H](CCCCN)C(=O)N[C@@H](CCCNC(=N)N)C(=O)N[C@@H](Cc1ccc(O)cc1)C(=O)N[C@@H](Cc1c[nH]c2ccccc12)C(=O)N[C@@H](CCCNC(=N)N)C(=O)N[C@@H](CCC(N)=O)C(=O)N[C@@H](CC(C)C)C(=O)N[C@@H](CCCCN)C(=O)N[C@@H](CCCCN)C(=O)N1CCC[C@H]1C(=O)N[C@H](C(=O)N[C@@H](CCCNC(=N)N)C(N)=O)C(C)C)C(C)C)C(C)C` (Ac-LKRVWKRVFKLLKRYWRQLKKPVR-NH2)?
Answer: Activity (Klebsiella pneumoniae [1]): Active; Activity [2]: Toxic; Activity (Cell membrane [3]): Active; Activity (Staphylococcus aureus [4]): Active; Activity [5]: Toxic; Activity (Cell membrane [6]): Active; Activity (Cell membrane [7]): Active; Activity (Cell membrane [8]): Active; MIC (Streptococcus pneumoniae): 4.7 µg/mL (≈ 1.44 µM); Activity (Staphylococcus aureus [9]): Active; Activity (Staphylococcus aureus [10]): Active; Activity (Klebsiella pneumoniae [11]): Active; Activity (Cell membrane [12]): Active; MIC (Klebsiella pneumoniae [13]): 38 µg/mL (≈ 11.6 µM); Activity (Cell membrane [14]): inactive; Activity (Klebsiella pneumoniae [15]): 86.42%; Activity (Cell membrane [16]): Active; Activity (Staphylococcus aureus [17]): Active; Model Group Showed Yellowish Compared With The Wounds Treated With Compound; Activity (Cell membrane [18]): Active; Activity (Staphylococcus aureus [19]): Active; Activity (Staphylococcus aureus [20]): 77.25%; Activity (Staphylococcus aureus [21]): Active; MIC (Staphylococcus aureus [22]): 9.7 µg/mL (≈ 2.97 µM); Activity [23]: Toxic; Activity (Cell membrane [24]): inactive; MIC (Pseudomonas aeruginosa): 4.9 µg/mL (≈ 1.5 µM); Activity (Cell membrane [25]): Active

Question: What does the source list for `CC(=O)N[C@@H](CC(C)C)C(=O)N[C@@H](CCCCN)C(=O)N[C@@H](CCCNC(=N)N)C(=O)N[C@H](C(=O)N[C@@H](Cc1c[nH]c2ccccc12)C(=O)N[C@@H](CCCCN)C(=O)N[C@@H](CCCNC(=N)N)C(=O)N[C@H](C(=O)N[C@@H](Cc1ccccc1)C(=O)N[C@@H](CCCCN)C(=O)N[C@@H](CC(C)C)C(=O)N[C@@H](CC(C)C)C(=O)N[C@@H](CCCCN)C(=O)N[C@@]1(C)CCC/C=C\CCC[C@@](C)(C(=O)N[C@@H](CC(C)C)C(=O)N[C@@H](CCCCN)C(=O)N[C@@H](CCCCN)C(=O)N2CCC[C@H]2C(=O)N[C@H](C(=O)N[C@@H](CCCNC(=N)N)C(N)=O)C(C)C)NC(=O)[C@H](CCCNC(=N)N)NC(=O)[C@H](Cc2c[nH]c3ccccc23)NC(=O)[C@H](Cc2ccc(O)cc2)NC1=O)C(C)C)C(C)C` (Ac-LKRVWKRVFKLLK[S5]YWR[S5]LKKPVR-NH2; staple (Z) 14-18)?
Answer: MIC (Streptococcus pneumoniae): 2.4 µg/mL (≈ 0.742 µM); MIC (Klebsiella pneumoniae [13]): 2.5 µg/mL (≈ 0.773 µM); HC50 at 1 h [26]: 12.2 µg/mL; MIC (Staphylococcus aureus [22]): 4.9 µg/mL (≈ 1.52 µM); MIC (Pseudomonas aeruginosa): 5 µg/mL (≈ 1.55 µM)

Question: With `CC(=O)N[C@@H](CC(C)C)C(=O)N[C@@H](CCCCN)C(=O)N[C@@H](CCCNC(=N)N)C(=O)N[C@H](C(=O)N[C@@H](Cc1c[nH]c2ccccc12)C(=O)N[C@@H](CCCCN)C(=O)N[C@@H](CCCNC(=N)N)C(=O)N[C@H](C(=O)N[C@@H](CCCCN)C(=O)N[C@@H](CCCCN)C(=O)N[C@@H](CC(C)C)C(=O)N[C@@H](CC(C)C)C(=O)N[C@@H](CCCCN)C(=O)N[C@@]1(C)CCC/C=C\CCC[C@@](C)(C(=O)N[C@@H](CC(C)C)C(=O)N[C@@H](CCCCN)C(=O)N[C@@H](CCCCN)C(=O)N2CCC[C@H]2C(=O)N[C@H](C(=O)N[C@@H](CCCNC(=N)N)C(N)=O)C(C)C)NC(=O)[C@H](CCCNC(=N)N)NC(=O)[C@H](Cc2c[nH]c3ccccc23)NC(=O)[C@H](Cc2ccc(O)cc2)NC1=O)C(C)C)C(C)C` (Ac-LKRVWKRVKKLLK[S5]YWR[S5]LKKPVR-NH2; staple (Z) 14-18) as the molecule, how does the MIC (Streptococcus pneumoniae) read?
Answer: 2.4 µg/mL (≈ 0.747 µM)

Question: And the MIC (Klebsiella pneumoniae [13])?
Answer: 19.2 µg/mL (≈ 5.97 µM)

Question: And the HC50 at 1 h [26]?
Answer: 38 µg/mL

Question: And the MIC (Staphylococcus aureus [22])?
Answer: 4.9 µg/mL (≈ 1.52 µM)

Question: What about the MIC (Pseudomonas aeruginosa) of the same molecule?
Answer: 5 µg/mL (≈ 1.56 µM)
